This is an account of results in article PMC6682008 (ACS Omega, 2019).

By pIC50 is commonly meant the negative decadic logarithm of the IC50, by convention in mol/L. Low readings indicate a high IC50, high ones a low IC50.

Each structure is given as a SMILES string. pIC50: −log10 of the molar value.

This test concerns the target hSPR (human sepiapterin reductase) (Homo sapiens, UniProt P35270). Briefly: colorimetric sepiapterin reduction, absorbance decrease at […] nm. The test is classed as biochemical.

hSPR (human sepiapterin reductase), sequence (P35270 whole entry): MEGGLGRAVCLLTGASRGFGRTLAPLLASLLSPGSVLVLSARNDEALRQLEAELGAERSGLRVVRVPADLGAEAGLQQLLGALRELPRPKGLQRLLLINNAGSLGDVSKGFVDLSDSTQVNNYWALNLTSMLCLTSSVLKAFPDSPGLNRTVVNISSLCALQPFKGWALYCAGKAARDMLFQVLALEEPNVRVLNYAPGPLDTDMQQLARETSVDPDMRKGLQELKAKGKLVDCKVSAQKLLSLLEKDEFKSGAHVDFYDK

Compound `C[C@H](Cc1ccc(O)c(O)c1)[C@@H](C)Cc1ccc(O)c(O)c1` [nordihydroguaiaretic acid] gave a pIC50 of 5.08.
In the case of `COc1ccc(/C=C/C(=O)Nc2ccccc2C(=O)O)cc1OC` [tranilast, N-3′,4′-dimethoxycinnamoyl-anthranilic acid] it was 5.23; in that of `CC(=O)NCCc1c[nH]c2ccc(O)cc12` [N-acetylserotonin, reference compound], 4.94.
